Experimental data published in patent publication US20260317364A1, “ACTIVE MACROLIDE ANTIBIOTIC COMPOUNDS AGAINST PATHOGENS” (priority 2023, published 2026).

Assays:
[1] = test system: E. coli tolC-deficient (tolC; MB5747); assay: Antibacterial activity against tolC-deficient E. coli; type: cell-based
[2] = test system: panel of bacterial isolates, including macrolide-resistant strains; assay: Antibacterial activity against panel of bacterial isolates (MIC); type: cell-based; details: comparison with other compounds of the series or reference macrolides
Procedure: Acylides 2-24, as well as carbamate acylides 29-42, 47-48 and 55 and 56 were tested for antibacterial activity against a panel of bacterial isolates, including macrolide-resistant strains. Furthermore, potential toxicity against human HEK293 and red blood cells was assessed. All compounds were submitted to ComPlat (Karlsruhe Institute of Technology, Germany) for compound management and screening. As reference antibiotics, the macrolide antibiotics clarithromycin (CTY), telithromycin (TEL), solithromycin (SOL), as well as the previously reported acylides TEA0777 and X10324 (See, Wayne, P. C. a. L. S. I., Methods for Dilution Antimicrobial Susceptibility Tests for Bacteria That Grow Aerobically. CLSI document M07. CLSI 2009) were employed. […]
Furthermore, the Gram-negative bacteria E. coli (DSM 30083), Acinetobacter baumannii Bouvet and Grimont 1986 (DSM 30007) and Pseudomonas aeruginosa (DSM 50071) were assayed. […] The MIC values were determined as previously described (See, Wayne, P. C. a. L. S. I., Methods for Dilution Antimicrobial Susceptibility Tests for Bacteria That Grow Aerobically. CLSI document M07. CLSI 2009; Albada, H. B., et al., Modulating the activity of short arginine-tryptophan containing antibacterial peptides with N-terminal metallocenoyl groups. 2012. 8(1): p. 1753-1764).

Compound | activity against tolC-deficient E. coli [1] | antibacterial activity (in words) [2]
CC[C@H]1OC(=O)[C@H](C)[C@@H](O[C@H]2C[C@@](C)(OC)[C@@H](O)[C@H](C)O2)[C@H](C)[C@@H](O[C@@H]2O[C@H](C)C[C@H](N(C)C)[C@H]2O)[C@](C)(OC)C[C@@H](C)C(=O)[C@H](C)[C@@H](O)[C@]1(C)O [clarithromycin] | apart from the clinically used clarithromycin and telithromycin show activity | –
CC[C@H]1OC(=O)[C@H](C)C(=O)[C@H](C)[C@@H](O[C@@H]2O[C@H](C)C[C@H](N(C)C)[C@H]2O)[C@](C)(OC)C[C@@H](C)C(=O)[C@H](C)[C@H]2N(CCCCn3cnc(-c4cccnc4)c3)C(=O)O[C@]12C [telithromycin] | apart from the clinically used clarithromycin and telithromycin show activity | –
2-desfluoro-solithromycin [Compound 50] | – | significantly less potent than solithroymcin
